Key:
POLCO [1] = test: Pre-emergence herbicidal action against POLCO; format: in vivo, Polygonum convolvulus; settings: Fallopia convolvulus, 504 h, dosage 320 g/ha
Summary of the method: (§1)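 Visual rating at 3 weeks vs untreated pots; 0–100% scale, 100% = plants died. Treatment: aqueous WP/EC spray onto covering soil, 600–800 l/ha, 0.2% wetter, seeds in sandy loam.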

ABUTH [2] = test: Post-emergence herbicidal action against ABUTH; format: in vivo, Abutilon theophrasti; settings: Abutilon theophrasti, 504 h, visual assessment about 3 weeks after treatment vs untreated controls; for pest or weed control at 20 g/ha: dosage 20 g/ha; for pest or weed control at 80 g/ha: dosage 80 g/ha
Summary of the method: (§2)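 Greenhouse pot plants in sandy loam were sprayed at the one-leaf stage, 2 to 3 weeks after sowing, with WP or EC formulations as aqueous suspension or emulsion (600 to 800 l/ha water, 0.2% wetting agent). About 3 weeks later, damage was scored visually against untreated controls as % action (100% = dead, 0% = like control).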

LOLRI [3] = test: Pre-emergence herbicidal action against LOLRI; format: in vivo, Lolium rigidum; settings: Lolium rigidum, 504 h, 320 g/ha
Summary of the method: as §1

VIOTR [4] = test: Post-emergence herbicidal action against VIOTR; format: in vivo, Viola tricolor; settings: Viola tricolor, 504 h
Summary of the method: as §2

MATIN = test: Pre-emergence herbicidal action against MATIN; format: in vivo, Matricaria inodora; settings: Tripleurospermum inodorum, 504 h; for pest or weed control at 80 g/ha: dosage 80 g/ha; for pest or weed control at 320 g/ha: dosage 320 g/ha
Summary of the method: as §1

STEME [5] = test: Pre-emergence herbicidal action against STEME; format: in vivo, Stellaria media; settings: Stellaria media, 504 h; for pest or weed control at 80 g/ha: dosage 80 g/ha; for pest or weed control at 320 g/ha: dosage 320 g/ha
Summary of the method: as §1

ECHCG = test: Pre-emergence herbicidal action against ECHCG; format: in vivo, Echinochloa crus-galli; settings: Echinochloa crus-galli, 504 h
Summary of the method: as §1

POLCO [6] = test: Post-emergence herbicidal action against POLCO; format: in vivo, Polygonum convolvulus; settings: Fallopia convolvulus, 504 h, dosage 80 g/ha
Summary of the method: as §2

VERPE [7] = test: Pre-emergence herbicidal action against VERPE; format: in vivo, Veronica persica; settings: Veronica persica, 504 h; for pest or weed control at 320 g/ha: dosage 320 g/ha
Summary of the method: as §1

AMARE [8] = test: Pre-emergence herbicidal action against AMARE; format: in vivo, Amaranthus retroflexus; settings: Amaranthus retroflexus, 504 h, 100% = plants have died, 0% = like control plants; for pest or weed control at 80 g/ha: scored visually after 3 weeks vs untreated controls; for pest or weed control at 320 g/ha: scored visually after 3 weeks
Summary of the method: as §1

SETVI = test: Pre-emergence herbicidal action against SETVI; format: in vivo, Setaria viridis; settings: Setaria viridis, 504 h; for pest or weed control at 80 g/ha: dosage 80 g/ha; for pest or weed control at 320 g/ha: dosage 320 g/ha
Summary of the method: as §1

ABUTH [9] = test: Pre-emergence herbicidal action against ABUTH; format: in vivo, Abutilon theophrasti; settings: Abutilon theophrasti, 504 h; for pest or weed control at 80 g/ha: scored visually after 3 weeks vs untreated controls (100% = plants have died, 0% = like control plants); for pest or weed control at 320 g/ha: Dosage: 320 g/ha, scored visually after 3 weeks, 100% = plants have died, 0% = like control plants
Summary of the method: as §1

ALOMY = test: Pre-emergence herbicidal action against ALOMY; format: in vivo, Alopecurus myosuroides; settings: Alopecurus myosuroides, 504 h, pre-emergence; for pest or weed control at 320 g/ha: scored visually after 3 weeks, 100% = plants have died, 0% = like control plants
Summary of the method: as §1

LOLRI [10] = test: Post-emergence herbicidal action against LOLRI; format: in vivo, Lolium rigidum; settings: Lolium rigidum, 504 h; for pest or weed control at 80 g/ha: dosage 80 g/ha
Summary of the method: as §2

AMARE [11] = test: Post-emergence herbicidal action against AMARE; format: in vivo, Amaranthus retroflexus; settings: Amaranthus retroflexus, 504 h, visual assessment about 3 weeks after treatment, 100% = plants have died, 0% = like control plants
Summary of the method: as §2

HORMU [12] = test: Pre-emergence herbicidal action against HORMU; format: in vivo, Hordeum murinum; settings: Hordeum murinum, 504 h, pre-emergence
Summary of the method: as §1

AVEFA = test: Pre-emergence herbicidal action against AVEFA; format: in vivo, Avena fatua; settings: Avena fatua, 504 h, pre-emergence; for pest or weed control at 320 g/ha: scored visually after 3 weeks, 100% = plants have died, 0% = like control plants
Summary of the method: as §1

VERPE [13] = test: Post-emergence herbicidal action against VERPE; format: in vivo, Veronica persica; settings: Veronica persica, 504 h
Summary of the method: as §2

STEME [14] = test: Post-emergence herbicidal action against STEME; format: in vivo, Stellaria media; settings: Stellaria media, 504 h
Summary of the method: as §2

VIOTR [15] = test: Pre-emergence herbicidal action against VIOTR; format: in vivo, Viola tricolor; settings: Viola tricolor, 504 h; for pest or weed control at 80 g/ha: dosage 80 g/ha; for pest or weed control at 320 g/ha: dosage 320 g/ha
Summary of the method: as §1

HORMU [16] = test: Post-emergence herbicidal action against HORMU; format: in vivo, Hordeum murinum; settings: Hordeum murinum, 504 h; for pest or weed control at 80 g/ha: dosage 80 g/ha
Summary of the method: as §2

| SMILES | pest or weed control at 320 g/ha (POLCO [1]) | pest or weed control at 20 g/ha (ABUTH [2]) | pest or weed control at 80 g/ha (ABUTH [2]) | pest or weed control at 320 g/ha (LOLRI [3]) | pest or weed control at 20 g/ha (VIOTR [4]) | pest or weed control at 80 g/ha (VIOTR [4]) | pest or weed control at 80 g/ha (MATIN) | pest or weed control at 320 g/ha (MATIN) | pest or weed control at 80 g/ha (STEME [5]) | pest or weed control at 320 g/ha (STEME [5]) | pest or weed control at 80 g/ha (ECHCG) | pest or weed control at 320 g/ha (ECHCG) | pest or weed control at 80 g/ha (POLCO [6]) | pest or weed control at 320 g/ha (VERPE [7]) | pest or weed control at 80 g/ha (AMARE [8]) | pest or weed control at 320 g/ha (AMARE [8]) | pest or weed control at 80 g/ha (SETVI) | pest or weed control at 320 g/ha (SETVI) | pest or weed control at 80 g/ha (ABUTH [9]) | pest or weed control at 320 g/ha (ABUTH [9]) | further results |
| --- | --- | --- | --- | --- | --- | --- | --- | --- | --- | --- | --- | --- | --- | --- | --- | --- | --- | --- | --- | --- | --- |
| CCNC(=O)c1c(C(F)F)ccc(C(=O)Nc2nnnn2C)c1Cl [Example 1-148] | 80% | 90% | 90% | 90% | 80% | 90% | 100% | 100% | 100% | 100% | 100% | 100% | 80% | 100% | 100% | 100% | 100% | 100% | 100% | 100% | pest or weed control at 80 g/ha (VERPE [7]; dosage 80 g/ha): 80%; pest or weed control at 80 g/ha (ALOMY; 80 g/ha, scored visually after 3 weeks vs untreated controls (100% = plants have died, 0% = like control plants)): 90%; pest or weed control at 320 g/ha (ALOMY): 100%; pest or weed control at 20 g/ha (LOLRI [10]; dosage 20 g/ha): 80%; pest or weed control at 80 g/ha (LOLRI [10]): 90%; pest or weed control at 20 g/ha (AMARE [11]): 90%; pest or weed control at 80 g/ha (AMARE [11]): 90%; pest or weed control at 80 g/ha (HORMU [12]): 90%; pest or weed control at 320 g/ha (HORMU [12]): 100%; pest or weed control at 80 g/ha (AVEFA): 100%; pest or weed control at 320 g/ha (AVEFA): 100%; pest or weed control at 20 g/ha (VERPE [13]): 80%; pest or weed control at 80 g/ha (VERPE [13]): 80%; pest or weed control at 20 g/ha (STEME [14]): 90%; pest or weed control at 80 g/ha (STEME [14]): 90%; pest or weed control at 80 g/ha (VIOTR [15]): 100%; pest or weed control at 320 g/ha (VIOTR [15]): 100%; pest or weed control at 80 g/ha (HORMU [16]): 90% |
| CCNC(=O)c1c(C(F)(F)F)ccc(C(=O)Nc2nnnn2CC)c1SC [Example 2-82] | 90% | 90% | 90% | 90% | 80% | 80% | 100% | 100% | 100% | 100% | 100% | 100% | 80% | 90% | 100% | 100% | 100% | 100% | 100% | 100% | pest or weed control at 320 g/ha (ALOMY): 100%; pest or weed control at 80 g/ha (LOLRI [10]): 90%; pest or weed control at 20 g/ha (AMARE [11]): 90%; pest or weed control at 80 g/ha (AMARE [11]): 90%; pest or weed control at 80 g/ha (HORMU [12]): 80%; pest or weed control at 320 g/ha (HORMU [12]): 100%; pest or weed control at 80 g/ha (AVEFA): 100%; pest or weed control at 320 g/ha (AVEFA): 100%; pest or weed control at 20 g/ha (VERPE [13]): 80%; pest or weed control at 80 g/ha (VERPE [13]): 90%; pest or weed control at 20 g/ha (STEME [14]): 80%; pest or weed control at 80 g/ha (STEME [14]): 90%; pest or weed control at 80 g/ha (VIOTR [15]): 100%; pest or weed control at 320 g/ha (VIOTR [15]): 100%; pest or weed control at 20 g/ha (HORMU [16]; dosage 20 g/ha): 80%; pest or weed control at 80 g/ha (HORMU [16]): 90% |
